# Assay results taken from patent US20100324067A1, “TETRACYCLIC DIPYRANO-COUMARIN COMPOUNDS WITH ANTI-HIV AND ANTI-MYCOBACTERIUM TUBERCULOSIS ACTIVITIES” (priority 2007, published 2010).
# Like-named read-outs stand apart in the source and are kept apart here.
# Legend:
# HIV-1 = assay: Inhibitory activity against HIV-1 (literature method, Chen et al. J Virol 1997); details: for inhibition at 1 µM: Human immunodeficiency virus 1, read-out: Anti-HIV (%, 1.0 μM); for EC50: Human immunodeficiency virus 1; for Therapeutic index (TI) = 50% cytotoxicity doses/50% effective dose: value in brackets after EC50; for anti-HIV-1 activity in vitro compared to (+)-calanolide A / therapeutic index, in words: in words
# Description: Inhibitory activity of the coumarin derivatives of the present invention against HIV-1.
# Inhibitory activity of the compounds against HIV-1 is assayed using the literature method. The experimental conditions, procedures, reagents and so on of the experiment are referred to the reference of “ZHIWEI CHEN, PEI ZHOU, DAVID D. HO, et al. Genetically divergent strains of simian immuno-deficiency virus use CCR5 as a coreceptor for entry. Journal of Virology, 1997, 71(4): 2705-2714”.
# [1] = system: Mycobacterium tuberculosis H37Rv (ATCC 27294); assay: Microplate Alamar Blue Assay (MABA) in BACTEC 12B medium (TAACF screen); format: cell-based
# host cells of the virus = assay: Cell toxicity to the host cells of the virus at 10 μM; format: cell-based
# [2] = read-out: anti-TB active compound (MIC90 less than 10 μg/mL), classification
SMILES,inhibition at 1 µM (HIV-1) [%],melting point [°C],IC50 [1] [µg/mL],"MIC90 ([1]; MABA, H37Rv, read-out: MIC90) [µg/mL]",Cell toxicity (10 μM) (host cells of the virus),further results
CCCCC1C=Cc2c3c(c4oc(=O)cc(CC)c4c2O1)C(=O)CC(C)O3 (centres unmarked) [Example 46],96.7,119 to 121,0.276,0.716,,"MIC90 [1, 2]: < 10 µg/mL"
"CCCCC1C=Cc2c3c(c4oc(=O)cc(CCC)c4c2O1)C(=O)C(C)CO3 (centres unmarked) [Example 77, 4-n-propyl-6-n-butyl-11-methyl-2H,6H,12H-benzo[1,2-b:3,4-b′:5,6-b″]-tripyranyl-2,12-dione]",35.2,144 to 145,,,,
"CCCCC1C=Cc2c3c(c4oc(=O)cc(CCC(F)(F)F)c4c2O1)C(=O)CC(C)O3 (centres unmarked) [Example 73, 4-(3,3′,3″-trifluoro-n-propyl)-6-n-butyl-10-methyl-2H,6H,12H-benzo[1,2-b:3,4-b′: 5,6-b″]-tripyranyl-2,12-dione]",53.6,129 to 130,,,−,
CCc1cc(=O)oc2c3c(c4c(c12)OC(C)(C)C=C4)OC(C)CC3=O (centres unmarked) [Example 9],73.2,,,,−,EC50 (HIV-1): 270 nM; Therapeutic index (TI) = 50% cytotoxicity doses/50% effective dose (HIV-1): > 1000
"CCCc1c(F)c(=O)oc2c3c(c4c(c12)OC(C)(C)C=C4)OC(C)CC3=O (centres unmarked) [Example 31, 6,6,10-trimethyl-3-fluoro-4-n-propyl-2H,6H,12H-benzo[1,2-b:3,4-b′:5,6-b″]-tripyranyl-2,12-dione]",45.3,,,,,
"CCCc1cc(=O)oc2c3c(c4c(c12)OC(C)(C)C=C4)OC(c1ccccc1)CC3=O (centres unmarked) [Example 16, 6,6-dimethyl-4-n-propyl-10-phenyl-2H,6H,12H-benzo[1,2-b:3,4-b′:5,6-b″]-tripyranyl-2,12-dione]",62.7,,2.91,> 100,,
"CCCc1cc(=O)oc2c3c(c4c(c12)OC(c1ccccc1[N+](=O)[O-])CC4OCC)OC(C)CC3=O (centres unmarked) [Example 98, 8-ethoxyl-4-n-propyl-6-(o-nitrophenyl)-10-methyl-4-n-propyl-7,8,10,11-tetrahydro-6H-benzo[2,3-f;2′,3′-h]-tripyranyl-2,12-dione]",61,237 to 240,,,,
"CC1CC(=O)c2c(c3c(c4c5c(c(=O)oc24)CCCC5)OC(C)(C)C=C3)O1 (centres unmarked) [Example 27, 6,6,10-trimethyl-3,4-cyclohexyl-2H,6H,12H-benzo[1,2-b:3,4-b′:5,6-b″]-tripyranyl-2,12-dione]",67,121 to 123,,,−,
"CCCc1cc(=O)oc2c3c(c4c(c12)OC(C)(C)C=C4)O[C@@H]1CCCC[C@@H]1C3=O [Example 19, 6,6-dimethyl-4-n-propyl-10,11-cis-cyclohexyl-2H,6H,12H-benzo[1,2-b:3,4-b′:5,6-b″]-tripyranyl-2,12-dione]",59.3,156 to 159,7.95,11.2,,
"CCCc1c(Cl)c(=O)oc2c3c(c4c(c12)OC(C)C=C4)OC(C)CC3=O (centres unmarked) [Example 81, 6,10-dimethyl-4-n-propyl-3-chloro-2H,6H,12H-benzo[1,2-b:3,4-b′:5,6-b″]-tripyranyl-2,12-dione]",55.7,129 to 131,,,−,
"CCCCCC1CC(=O)c2c(c3c(c4c(CCC)cc(=O)oc24)OC(C)(C)C=C3)O1 (centres unmarked) [Example 15, 6,6-dimethyl-4-n-propyl-10-n-pentyl-2H,6H,12H-benzo[1,2-b:3,4-b′:5,6-b″]-tripyranyl-2,12-dione]",46.4,128 to 131,,,,
"CCCc1cc(=O)oc2c3c(c4c(c12)OC(C)(C)C=C4)OC(CCC)CC3=O (centres unmarked) [Example 14, 6,6-dimethyl-4,10-di-n-propyl-2H,6H,12H-benzo[1,2-b:3,4-b′:5,6-b″]-tripyranyl-2,12-dione]",61.9,,5.72,6.44,,"EC50 (HIV-1): 32.5 nM; anti-HIV-1 activity in vitro compared to (+)-calanolide A (HIV-1): much higher inhibitory activity; therapeutic index, in words (HIV-1): high therapeutic index; Therapeutic index (TI) = 50% cytotoxicity doses/50% effective dose (HIV-1): 102-308; MIC90 [1, 2]: < 10 µg/mL"
"CCCc1cc(=O)oc2c1c1c(c3occc(=O)c32)C=CC(C)(C)O1 [Example 13, 6,6-dimethyl-4-n-propyl-2H,6H,12H-benzo[1,2-b:3,4-b′:5,6-b″]-tripyranyl-2,12-dione]",64.9,102 to 104,,,−,
CCCc1cc(=O)oc2c3c(c4c(c12)OC(C)(C)C=C4)OC(CBr)CC3=O (centres unmarked) [Example 57],93.5,,0.825,1.75,−,"EC50 (HIV-1): 2.85 nM; anti-HIV-1 activity in vitro compared to (+)-calanolide A (HIV-1): much higher inhibitory activity; therapeutic index, in words (HIV-1): high therapeutic index; Therapeutic index (TI) = 50% cytotoxicity doses/50% effective dose (HIV-1): > 10526"
CCCc1cc(=O)oc2c3c(c4c(c12)OC(c1ccccc1[N+](=O)[O-])C=C4)OC(C)CC3=O (centres unmarked) [Example 97],52.6,216 to 218,,,−,
CCCCc1cc(=O)oc2c3c(c4c(c12)OC(c1ccccc1)C=C4)OC(C)CC3=O (centres unmarked) [Example 44],96.4,137 to 139,,,,
"CCCc1cc(=O)oc2c3c(c4c(c12)OC(C)C=C4)OCC(C)C3=O (centres unmarked) [Example 75, 6,11-dimethyl-4-n-propyl-2H,6H,12H-benzo[1,2-b:3,4-b′:5,6-b″]-tripyranyl-2,12-dione]",62.4,135 to 137,1,1.89,,"MIC90 [1, 2]: < 10 µg/mL"
CCCC1C=Cc2c3c(c4oc(=O)cc(CC)c4c2O1)C(=O)CC(C)O3 (centres unmarked) [Example 47],97,119 to 121,1.49,1.73,,"MIC90 [1, 2]: < 10 µg/mL"
"CC1CC(=O)c2c(c3c(c4c(CN5CCN(C)CC5)cc(=O)oc24)OC(C)(C)C=C3)O1 (centres unmarked) [Example 7, 6,6,10-trimethyl-4-p-methylpiperazidinylmethylene-10,11-dihydro-6H-[2,3-f:2′,3′-h]-tri pyranyl-2,12-dione]",48.3,238 to 239,,,−,
"CCCc1cc(=O)oc2c3c(c4c(c12)OC(C)(C)C=C4)OC(C)(C)CC3=O [Example 12, 6,6,10,10-tetramethyl-4-n-propyl-2H,6H,12H-benzo[1,2-b:3,4-b′:5,6-b″]-tripyranyl-2,12-dione]",68.3,110 to 112,,,,EC50 (HIV-1): 640 nM; Therapeutic index (TI) = 50% cytotoxicity doses/50% effective dose (HIV-1): 47-140
"CCCc1cc(=O)oc2c3c(c4c(c12)OC(C)(C)C=C4)OC(C)CC3=O (centres unmarked) [Example 11, 6,6,10-trimethyl-4-n-propyl-2H,6H,12H-benzo[1,2-b:3,4-b′:5,6-b″]-tripyranyl-2,12-dione]",73.1,,,,,
"CCCc1cc(=O)oc2c3c(c4c(c12)OC(C)(C)C=C4)OC(C)CC3O (single isomer, unassigned; (+)) [(+)-11-demethyl Calanolide A, reference compound]",,,,,,"Anti-HIV (%, 1.0 μM) (HIV-1; compound at 1.0 μM): 75%; Cell toxicity (10 μM) (host cells of the virus; class symbol, share of host cells of the virus died at 10 μM compound): ++ (10-80%); Cell toxicity (10 μM), number printed before the class symbol (host cells of the virus; host cells of the virus died at 10 μM compound): 54%"
"CCCc1c(Cl)c(=O)oc2c3c(c4c(c12)OC(c1ccccc1)C=C4)OC(C)CC3=O (centres unmarked) [Example 50, 1-methyl-4-n-propyl-3-chloro-6-phenyl-2H,6H,12H-benzo[1,2-b:3,4-b′:5,6-b″]-tripyranyl-12-dione]",96.3,152 to 154,6.07,6.7,,"MIC90 [1, 2]: < 10 µg/mL"
"CCCCc1cc(=O)oc2c3c(c4c(c12)OC(CCC)C=C4)OC(C)CC3=O (centres unmarked) [Example 37, 10-methyl-6-n-propyl-4-n-butyl-2H,6H,12H-benzo[1,2-b:3,4-b′:5,6-b″]-tripyranyl-2,12-dione]",,135 to 138,,8.36,,"IC50 ([1]; MABA, H37Rv, read-out: IC50): 5.33 µg/mL; MIC90 [1, 2]: < 10 µg/mL"
CCc1cc(=O)oc2c3c(c4c(c12)OC(c1ccccc1)C=C4)OC(C)CC3=O (centres unmarked) [Example 45],96.4,126 to 128,2.01,2.73,,"MIC90 [1, 2]: < 10 µg/mL"
"CCCc1cc(=O)oc2c3c(c4c(c12)OC(C)(C)C=C4)O[C@@H]1CCCC[C@H]1C3=O [Example 18, 6,6-dimethyl-4-n-propyl-10,11-trans-cyclohexyl-2H,6H,12H-benzo[1,2-b:3,4-b′:5,6-b″]-tripyranyl-2,12-dione]",40,151 to 153,46.8,> 100,,
"CCCc1cc(=O)oc2c3c(c4c(c12)OC(C)(C)C=C4)OCC(C)C3=O (centres unmarked) [Example 30, 6,6,11-trimethyl-4-n-propyl-2H,6H,12H-benzo[1,2-b:3,4-b′:5,6-b″]-tripyranyl-2,12-dione]",38.9,133 to 134,,,,
"CCCc1c(F)c(=O)oc2c3c(c4c(c12)OC(C)C=C4)OC(C)CC3=O (centres unmarked) [Example 84, 6,10-dimethyl-4-n-propyl-3-fluoro-2H,6H,12H-benzo[1,2-b:3,4-b′:5,6-b″]-tripyranyl-2,12-dione]",,150 to 153,,27.7,,"IC50 ([1]; MABA, H37Rv, read-out: IC50): 17.3 µg/mL"
"CCCc1c(Cl)c(=O)oc2c3c(c4c(c12)OC(C)(C)C=C4)OC(C)CC3=O (centres unmarked) [Example 20, 6,6,10-trimethyl-3-chrolo-4-n-propyl-2H,6H,12H-benzo[1,2-b:3,4-b′:5,6-b″]-tripyranyl-2,12-dione]",68.1,,,,−,EC50 (HIV-1): 370 nM; Therapeutic index (TI) = 50% cytotoxicity doses/50% effective dose (HIV-1): 243-730
